According to patent US20260028326A1, “COMPOUND BASED ON ISOINDOLINE-SUBSTITUTED GLUTARIMIDE BACKBONE AND USE THEREOF” (GLUETACS THERAPEUTICS (SHANGHAI) CO., LTD., priority 2022, published 2026):

Key:
IKZF1 protein = IKZF1 protein (Homo sapiens (Human), UniProt Q13422+Q96SW2); test: Western-blot assay of substrate protein degradation in hPBMC, IKZF1; type: cell-based; conditions: for residual substrate protein level, IKZF1: hPBMC cells, compound 500 nM, 24 hours, Western blot
MM.1R cells = test: Tumor cell proliferation IC50 (CCK-8), MM.1R; conditions: Homo sapiens, 72 h, read-out: IC50 for inhibiting the proliferation of tumor cells, MM.1R
Protocol: (§1) The tumor cells used herein were cultured in a cell culture medium listed in table A at 37° C. in an incubator with 5% CO2.
(§2) After the cells were treated with the compounds of the present disclosure for a period of time, the cell viability detection reagent was added to the culture medium for cell viability assessment according to the instructions provided with the CCK-8 kit. […] The growth inhibition of the compounds of the present disclosure on cells was plotted by Prism Graphpad software, and the IC50 values of the compounds of the present disclosure were calculated therefrom.

Kasumi-1 cells = test: Tumor cell proliferation IC50 (CCK-8), Kasumi-1; conditions: Homo sapiens, Kasumi 1, 72 h, read-out: IC50 for inhibiting the proliferation of tumor cells, Kasumi-1
Protocol: as §1, §2

SU-DHL-4 cells = test: Tumor cell proliferation IC50 (CCK-8), SU-DHL-4; conditions: Homo sapiens, SU-DHL-4, 72 h, read-out: IC50 for inhibiting the proliferation of tumor cells, SU-DHL-4
Protocol: (§3) Prior to experimentation, all cells used were correctly identified by STR profiling, and tested negative for mycoplasma through routine screenings.
as §2

MM.1S cells = test: Tumor cell proliferation IC50 (CCK-8), MM.1S; conditions: Homo sapiens, MM1.S, 72 h, read-out: IC50 for inhibiting the proliferation of tumor cells, MM.1S;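 also: viability of cultured cells read by CCK-8 reagent after compound exposure, growth inhibition curves fitted to derive IC50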
Protocol: as §1, §2

[1] = Pharmacokinetic study, oral administration, mouse plasma; type: in vivo, mice; conditions: p.o. 30 mg/kg
Protocol: The experimental animals used can be those commonly used in pharmacokinetic experiments, e.g., adult and healthy rodents (e.g., mice, rats (such as Sprague-Dawley (SD) rats), guinea pigs) or non-rodents (rabbits, dogs, and monkeys). In the present disclosure, mice were used as the experimental animals.
The experimental animals were divided into two groups: a control group (for collecting blank plasma) and an orally administered group (dosed at 10 mg/kg or 30 mg/kg). Blood samples were collected at predetermined sampling time points after administration, such as 0.25 h, 0.5 h, 1 h, 2 h, 4 h, 8 h, and 24 h post-dosing. Blank plasma was collected from the control group.
Plasma samples were preprocessed before analysis: 10 μL of 50% acetonitrile and 200 μL of internal standard solution (containing 50 ng/mL dexamethasone in acetonitrile) were added to 10 μL of plasma samples. For the blank control group, the same volume of acetonitrile was added instead of the internal standard. The processed samples were vortexed, centrifuged, and the supernatant was taken for LC-MS/MS injection analysis.
After preparing standard curves and quality control (QC) samples, the concentrations of the compounds in the plasma samples were determined by LC-MS/MS analysis. Based on the plasma concentration data obtained from LC-MS/MS analysis, the pharmacokinetic parameters of the test compounds were calculated using the non-compartmental model in the pharmacokinetic calculation software WinNonlin v8.1.

MDA-MB-231 cells = test: Tumor cell proliferation IC50 (CCK-8), MDA-MB-231; conditions: Homo sapiens, MDA-MB-231, 96 h, read-out: IC50 for inhibiting the proliferation of tumor cells, MDA-MB-231
Protocol: as §3, §2

SU-DHL-6 cells = test: Tumor cell proliferation IC50 (CCK-8), SU-DHL-6; conditions: Homo sapiens, SU-DHL-6, 72 h, read-out: IC50 for inhibiting the proliferation of tumor cells, SU-DHL-6
Protocol: as §3, §2

GSPT1 protein = GSPT1 protein (Homo sapiens (Human), UniProt P15170+Q96SW2); test: Western-blot assay of substrate protein degradation in hPBMC, GSPT1; type: cell-based; conditions: for residual substrate protein level, GSPT1: hPBMC cells, compound 500 nM, 24 hours, Western blot
Ramos cells = test: Tumor cell proliferation IC50 (CCK-8), Ramos; conditions: Homo sapiens, 72 h, read-out: IC50 for inhibiting the proliferation of tumor cells, Ramos
Protocol: as §1, §2

IKZF3 protein = IKZF3 protein (Homo sapiens (Human), UniProt Q96SW2+Q9UKT9); test: Western-blot assay of substrate protein degradation in hPBMC, IKZF3; type: cell-based; conditions: for residual substrate protein level, IKZF3: hPBMC cells, compound 500 nM, 24 hours, Western blot
TMD8 cells = test: Tumor cell proliferation IC50 (CCK-8), TMD8; conditions: Homo sapiens, TMD8, 72 h, read-out: IC50 for inhibiting the proliferation of tumor cells, TMD8
Protocol: as §1, §2

CCRF-CEM cells = test: Tumor cell proliferation IC50 (CCK-8), CCRF-CEM; conditions: Homo sapiens, 96 h, read-out: IC50 for inhibiting the proliferation of tumor cells, CCRF-CEM;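 also: cell viability measured with CCK-8 reagent after compound treatment, IC50 taken from plotted growth inhibition curves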
Protocol: as §1, §2

[2] = target: human Cereblon WT GST-tagged protein (Homo sapiens (Human), UniProt Q96SW2); test: CRBN-binding affinity, HTRF (CEREBLON BINDING kit)
Summary of the method: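 GST-tagged human WT Cereblon incubated with compound, then Thalidomide-Re tracer and anti-GST Eu antibody added. Displacement read by HTRF, reported as CRBN binding inhibition rate against blank control wells without protein.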

Daudi cells = test: Tumor cell proliferation IC50 (CCK-8), Daudi; conditions: Homo sapiens, read-out: IC50 for inhibiting the proliferation of tumor cells, Daudi;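 also: cell viability read with CCK-8 reagent after compound exposure of Daudi cells, IC50 derived from plotted growth inhibition curves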
Protocol: as §1, §2

SW620 cells = test: Tumor cell proliferation IC50 (CCK-8), SW620; conditions: Homo sapiens, SW-620, 96 h, read-out: IC50 for inhibiting the proliferation of tumor cells, SW620
Protocol: as §1, §2

MV-4-11 cells = test: Tumor cell proliferation IC50 (CCK-8), MV-4-11; conditions: Homo sapiens, MV4-11, 96 h, read-out: IC50 for inhibiting the proliferation of tumor cells, MV-4-11
Protocol: as §1, §2

Mino cells = test: Tumor cell proliferation IC50 (CCK-8), Mino; conditions: Homo sapiens, 72 h, read-out: IC50 for inhibiting the proliferation of tumor cells, Mino;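 also: cell viability assessed with CCK-8 reagent after compound exposure, IC50 derived from plotted growth inhibition curves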

Sequence of IKZF1 protein (Q13422 whole entry): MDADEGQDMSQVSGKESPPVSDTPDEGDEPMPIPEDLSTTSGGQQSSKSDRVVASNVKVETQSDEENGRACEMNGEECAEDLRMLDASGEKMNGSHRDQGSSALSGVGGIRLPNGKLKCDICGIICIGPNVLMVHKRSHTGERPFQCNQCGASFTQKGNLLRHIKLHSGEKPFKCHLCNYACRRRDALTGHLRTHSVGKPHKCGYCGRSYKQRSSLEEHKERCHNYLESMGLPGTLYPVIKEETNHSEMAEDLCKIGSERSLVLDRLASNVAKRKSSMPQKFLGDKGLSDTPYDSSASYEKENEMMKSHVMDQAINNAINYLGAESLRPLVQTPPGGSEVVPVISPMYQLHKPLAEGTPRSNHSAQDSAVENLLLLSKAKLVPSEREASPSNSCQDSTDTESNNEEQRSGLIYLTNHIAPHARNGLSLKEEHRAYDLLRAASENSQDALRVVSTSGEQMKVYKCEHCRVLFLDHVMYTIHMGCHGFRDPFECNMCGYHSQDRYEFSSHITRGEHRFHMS
Sequence of IKZF1 protein (Q96SW2 whole entry): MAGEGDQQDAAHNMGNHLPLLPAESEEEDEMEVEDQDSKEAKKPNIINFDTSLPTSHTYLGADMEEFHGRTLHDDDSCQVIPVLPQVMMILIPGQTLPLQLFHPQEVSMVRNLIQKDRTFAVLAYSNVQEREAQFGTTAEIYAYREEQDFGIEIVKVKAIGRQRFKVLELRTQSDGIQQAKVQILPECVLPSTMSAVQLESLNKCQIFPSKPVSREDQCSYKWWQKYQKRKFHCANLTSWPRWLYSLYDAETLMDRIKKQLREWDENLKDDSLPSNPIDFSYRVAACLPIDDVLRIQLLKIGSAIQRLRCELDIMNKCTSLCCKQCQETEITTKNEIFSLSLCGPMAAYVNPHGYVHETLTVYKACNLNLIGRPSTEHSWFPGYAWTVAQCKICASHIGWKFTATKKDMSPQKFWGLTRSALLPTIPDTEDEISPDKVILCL
Sequence of IKZF1 protein (Q16531 whole entry partner): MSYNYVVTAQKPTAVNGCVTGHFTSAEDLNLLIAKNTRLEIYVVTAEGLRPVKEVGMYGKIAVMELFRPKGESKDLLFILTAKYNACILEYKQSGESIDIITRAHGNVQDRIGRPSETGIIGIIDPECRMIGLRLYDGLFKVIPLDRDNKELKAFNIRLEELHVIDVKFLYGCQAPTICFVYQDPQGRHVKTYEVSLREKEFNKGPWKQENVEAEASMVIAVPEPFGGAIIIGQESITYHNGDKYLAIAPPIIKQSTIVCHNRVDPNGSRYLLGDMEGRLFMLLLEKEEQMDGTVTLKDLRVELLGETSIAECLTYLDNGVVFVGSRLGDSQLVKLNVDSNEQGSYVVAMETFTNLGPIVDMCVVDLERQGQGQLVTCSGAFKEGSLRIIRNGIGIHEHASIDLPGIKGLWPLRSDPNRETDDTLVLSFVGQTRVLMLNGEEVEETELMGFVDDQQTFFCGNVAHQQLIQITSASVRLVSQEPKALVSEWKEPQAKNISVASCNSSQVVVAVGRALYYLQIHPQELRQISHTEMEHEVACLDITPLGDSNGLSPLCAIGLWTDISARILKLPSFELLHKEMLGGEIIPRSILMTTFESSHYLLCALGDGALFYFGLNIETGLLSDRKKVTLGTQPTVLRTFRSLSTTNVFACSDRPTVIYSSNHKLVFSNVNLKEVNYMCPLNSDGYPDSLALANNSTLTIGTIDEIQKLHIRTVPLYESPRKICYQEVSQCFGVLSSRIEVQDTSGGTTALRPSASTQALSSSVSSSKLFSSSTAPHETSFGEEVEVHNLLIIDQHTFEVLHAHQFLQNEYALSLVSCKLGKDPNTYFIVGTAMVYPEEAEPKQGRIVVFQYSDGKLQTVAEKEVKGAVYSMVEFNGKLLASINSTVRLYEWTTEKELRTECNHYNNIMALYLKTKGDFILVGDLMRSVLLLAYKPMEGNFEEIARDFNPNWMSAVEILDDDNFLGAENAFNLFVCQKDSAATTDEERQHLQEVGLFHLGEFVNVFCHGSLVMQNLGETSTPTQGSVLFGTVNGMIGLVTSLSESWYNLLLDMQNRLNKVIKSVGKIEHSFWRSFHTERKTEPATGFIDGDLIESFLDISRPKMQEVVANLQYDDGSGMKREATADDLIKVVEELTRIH
Sequence of human Cereblon WT GST-tagged protein (Q96SW2 whole entry): as the sequence (Q96SW2 whole entry) above
Sequence of IKZF3 protein (Q9UKT9 whole entry): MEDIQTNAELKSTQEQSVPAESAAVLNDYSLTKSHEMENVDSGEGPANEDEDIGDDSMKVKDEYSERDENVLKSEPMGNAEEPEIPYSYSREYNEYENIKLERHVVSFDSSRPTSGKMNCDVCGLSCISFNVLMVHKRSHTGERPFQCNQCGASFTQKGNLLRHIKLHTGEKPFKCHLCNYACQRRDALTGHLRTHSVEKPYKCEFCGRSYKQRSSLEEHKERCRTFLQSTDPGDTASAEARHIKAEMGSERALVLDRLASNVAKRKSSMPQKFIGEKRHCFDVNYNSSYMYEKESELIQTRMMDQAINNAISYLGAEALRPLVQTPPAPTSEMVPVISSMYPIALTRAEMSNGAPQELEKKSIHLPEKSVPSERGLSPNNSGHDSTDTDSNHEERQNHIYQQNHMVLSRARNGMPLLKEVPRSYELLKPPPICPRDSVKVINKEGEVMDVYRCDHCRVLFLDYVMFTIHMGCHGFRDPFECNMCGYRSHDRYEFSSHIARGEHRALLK
Sequence of IKZF3 protein (Q96SW2 whole entry): as the sequence (Q96SW2 whole entry) above
Sequence of IKZF3 protein (Q16531 whole entry partner): as the sequence (Q16531 whole entry partner) above
Sequence of GSPT1 protein (P15170 whole entry): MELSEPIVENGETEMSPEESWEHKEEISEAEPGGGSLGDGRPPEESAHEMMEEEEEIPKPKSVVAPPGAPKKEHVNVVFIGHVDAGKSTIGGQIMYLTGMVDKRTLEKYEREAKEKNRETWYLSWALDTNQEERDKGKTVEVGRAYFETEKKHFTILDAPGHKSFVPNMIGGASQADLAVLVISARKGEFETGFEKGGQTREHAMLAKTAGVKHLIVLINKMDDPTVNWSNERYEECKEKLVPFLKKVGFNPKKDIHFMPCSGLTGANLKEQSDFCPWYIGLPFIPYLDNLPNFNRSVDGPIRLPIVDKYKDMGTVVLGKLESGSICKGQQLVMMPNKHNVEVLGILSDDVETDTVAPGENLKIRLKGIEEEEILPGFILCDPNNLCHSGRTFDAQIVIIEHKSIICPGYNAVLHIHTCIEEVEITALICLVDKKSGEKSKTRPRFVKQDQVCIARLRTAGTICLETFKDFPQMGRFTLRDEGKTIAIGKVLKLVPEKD
Sequence of GSPT1 protein (Q96SW2 whole entry): as the sequence (Q96SW2 whole entry) above
Sequence of GSPT1 protein (Q16531 whole entry partner): as the sequence (Q16531 whole entry partner) above

| Compound | residual substrate protein level, IKZF1 (IKZF1 protein) | IC50 (MM.1R cells) [nM] | IC50 (Kasumi-1 cells) [nM] | IC50 (SU-DHL-4 cells) [nM] | IC50 (MM.1S cells) [nM] | AUC(0-t) [1] [ng·h/mL] | IC50 (MDA-MB-231 cells) [nM] | IC50 (SU-DHL-6 cells) [nM] | residual substrate protein level, GSPT1 (GSPT1 protein) | IC50 (Ramos cells) [nM] | residual substrate protein level, IKZF3 (IKZF3 protein) | IC50 (TMD8 cells) [nM] | IC50 (CCRF-CEM cells) [nM] | IC50 [2] [nM] | IC50 (SW620 cells) [nM] | IC50 (Mino cells) [nM] | further results |
| --- | --- | --- | --- | --- | --- | --- | --- | --- | --- | --- | --- | --- | --- | --- | --- | --- | --- |
| CC1(C)CCC(CN2CCN(Cc3cc4c(cc3F)C(=O)N(C3CCC(=O)NC3=O)C4)CC2)=C(c2ccc(Cl)cc2)C1 (stereo not shown) [GT-03578, 3-(5-((4-((4′-chloro-5,5-dimethyl-3,4,5,6-tetrahydro-[1,1′-biphenyl]-2-yl)methyl)piperazin-1-yl)methyl)-6-fluoro-1-oxoisoindolin-2-yl)piperidine-2,6-dione] | A (A represents a residual substrate protein level of <50%) | 5 to 10 | < 5 | 100 to 500 | < 5 | > 500 | < 5 | 1000 to 5000 | A (A represents a residual substrate protein level of <50%) | 10 to 50 | A (A represents a residual substrate protein level of <50%) | 10 to 50 | < 5 | 1830 |  |  |  |
| Nc1cccc2c1C(=O)N(C1CCC(=O)NC1=O)C2=O (stereo not shown) [pomalidomide, reference compound] |  | > 10000 | > 10000 | > 10000 | 100 to 500 |  | > 10000 | > 10000 |  | 1000 to 5000 |  | 500 to 1000 | > 10000 |  | > 10000 | 1000 to 5000 | degradation of IKZF1 protein (Western blot, FIG. 1) (IKZF1 protein; hPBMC, 24 h, 50 nM): cannot degrade; IC50 (Daudi cells): 5000 to 10000 nM; degradation of GSPT1 protein (Western blot, FIG. 1) (GSPT1 protein; hPBMC, 24 h, 50 nM): cannot degrade; degradation of IKZF3 protein (Western blot, FIG. 1) (IKZF3 protein; hPBMC, 24 h, 50 nM): cannot degrade; IC50 (MV-4-11 cells): > 10000 nM |
| O=C1CCC(N2Cc3cc(-c4ccc(CN5CCN(Cc6ccccc6-c6ccc(Cl)cc6)CC5)cc4)ccc3C2=O)C(=O)N1 (stereo not shown) [GT-03356, 3-(5-(4-((4-((4′-chloro-[1,1′-biphenyl]-2-yl)methyl)piperazin-1-yl)methyl)phenyl)-1-oxoisoindolin-2-yl)piperidine-2,6-dione] |  |  |  |  |  |  |  | 100 to 500 |  | 5000 to 10000 |  |  | 1000 to 5000 |  |  |  |  |
| O=C1CCC(N2Cc3cc(CN4CCN(Cc5ccccc5-c5ccc(Cl)cc5)CC4)ccc3C2=O)C(=O)N1 (stereo not shown) [GT-03355, 3-(5-((4-((4′-chloro-[1,1′-biphenyl]-2-yl)methyl)piperazin-1-yl)methyl)-1-oxoisoindolin-2-yl)piperidine-2,6-dione] | A (A represents a residual substrate protein level of <50%) | < 5 | < 5 | 100 to 500 | < 5 | > 500 | < 5 | 10 to 50 | A (A represents a residual substrate protein level of <50%) | 5 to 10 | A (A represents a residual substrate protein level of <50%) | < 5 | < 5 | 770 | 5 to 10 | < 5 |  |
| CC1(C)CCC(CN2CCN(Cc3ccc4c(c3F)CN(C3CCC(=O)NC3=O)C4=O)CC2)=C(c2ccc(Cl)cc2)C1 (stereo not shown) [GT-03468, 3-(5-((4-((4′-chloro-5,5-dimethyl-3,4,5,6-tetrahydro-[1,1′-biphenyl]-2-yl)methyl)piperazin-1-yl)methyl)-4-fluoro-1-oxoisoindolin-2-yl)piperidine-2,6-dione] | A (A represents a residual substrate protein level of <50%) | 10 to 50 | 10 to 50 | 5000 to 10000 | 10 to 50 | > 500 | 10 to 50 |  | A (A represents a residual substrate protein level of <50%) | 100 to 500 | A (A represents a residual substrate protein level of <50%) | 100 to 500 | 10 to 50 | 2960 | 10 to 50 | 100 to 500 |  |
